This assay concerns Gram-negative non-fermenting bacteria: B. cepacia, P. aeruginosa, Strenotrophomonas sp. Nature of the assay: Modified challenge test in fabric conditioner, Total Viable Count pour plate: Gram-negative non-fermenting bacteria. Type of assay: cell-based. The settings on record: overall statement on the challenge tests of Tables 3 and 4. The method, then:
Water was heated to ˜45° C., the Cetearyl alcohol was added followed by the minors. A premix of melted quaternary ammonium active was then added and mixed. The formulation was then cooled to ˜35° C. and any remaining minors added.
Itaconic acid, lactic acid and citric acid were purchased from Sigma-Aldrich. Samples of unpreserved fabric conditioner were dosed with itaconic acid, citric acid or lactic acid separately, according to Tables 3 and 4. Each dosed product was adjusted to pH 5 using 50% sodium hydroxide (Sigma-Aldrich). An unpreserved sample was kept as a control.
A modified challenge test method was performed on samples as defined in […]. The microbial compositions comprising the bacteria listed in Tables 2 and 3 were produced with an inoculum level of 5×10^7 CFU/G in sodium chloride.
The microbial compositions were added to each fabric conditioner formulation at a ratio of 1:10 (by weight) microbial composition to fabric conditioner formulation. […]
Both the inoculum level and the level of microorganism within each sample was quantified using a Total Viable Count (TVC) pour plate method after contact times as indicated in data tables. […] Visible colonies were counted with the aid of a Quebec Colony Counter and recorded for analysis against the challenge test criteria.

For the compound `C=C(CC(=O)O)C(=O)O` [itaconic acid], the “Preservation performance compared with other systems” value is “out performed citric acid, lactic acid and unpreserved systems”.

Source of the values: patent US20220033734A1, “FABRIC CONDITIONER COMPOSITIONS” (Conopco, Inc., d/b/a UNILEVER, priority 2018, published 2022).
